The values that follow are results of earlier work, collected in PMC9284491 (Nature Communications, 2022).

Molecules are shown by their SMILES.

In the series the test system is ER. The arrangement: method as in PMID 31721572. As to conditions: in vitro, preclinical, cited from earlier work.

Consider `O=C(O)c1ccc2c(c1)CCCC(c1ccc(Cl)cc1Cl)=C2c1ccc(O[C@H]2CCN(CCCF)C2)cc1` [amcenestrant, 6-(2,4-Dichlorophenyl)−5-[4-[(3S)−1-(3-fluoropropyl)pyrrolidin-3-yl]oxyphenyl]−8,9-dihydro-7H-benzo[7]annulene-2-carboxylic acid], for which the ER degradation efficacy is 98%. In addition, the EC50 (read-out: ER degradation potency) was 0.2 nM.
